# From patent publication US10377753B2, “Substituted 4-azaindoles and their use as GluN2B receptor modulators” (Janssen Pharmaceutica NV, priority 2015, dated 2019)
# Counter-ions that a name gives are not always drawn.
# Biological target: cloned human NR1/NR2B ion channels (Homo sapiens (Human), UniProt Q05586+Q13224)
# Experiment: HNR2BC: effects of test articles on cloned human NR1/NR2B ion channels expressed in mammalian cells (FLIPR calcium flux)
# Format: cell-based
# Conditions: cloned human NR1/NR2B, Table 5
# In short: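 Compounds were added to dye-loaded cells for 5 min with fluorescence monitored for agonism, followed by co-agonists (glutamate ~EC80, glycine 10 μM saturating) for 5 min. Cells stably expressed inducible human NR1/NR2B, and the buffer was pH 7.4. The FLIPR Ca2+ flux signal was normalized against control wells.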
# cloned human NR1/NR2B ion channels, sequence (Q13224 27-1484, other chains not shown): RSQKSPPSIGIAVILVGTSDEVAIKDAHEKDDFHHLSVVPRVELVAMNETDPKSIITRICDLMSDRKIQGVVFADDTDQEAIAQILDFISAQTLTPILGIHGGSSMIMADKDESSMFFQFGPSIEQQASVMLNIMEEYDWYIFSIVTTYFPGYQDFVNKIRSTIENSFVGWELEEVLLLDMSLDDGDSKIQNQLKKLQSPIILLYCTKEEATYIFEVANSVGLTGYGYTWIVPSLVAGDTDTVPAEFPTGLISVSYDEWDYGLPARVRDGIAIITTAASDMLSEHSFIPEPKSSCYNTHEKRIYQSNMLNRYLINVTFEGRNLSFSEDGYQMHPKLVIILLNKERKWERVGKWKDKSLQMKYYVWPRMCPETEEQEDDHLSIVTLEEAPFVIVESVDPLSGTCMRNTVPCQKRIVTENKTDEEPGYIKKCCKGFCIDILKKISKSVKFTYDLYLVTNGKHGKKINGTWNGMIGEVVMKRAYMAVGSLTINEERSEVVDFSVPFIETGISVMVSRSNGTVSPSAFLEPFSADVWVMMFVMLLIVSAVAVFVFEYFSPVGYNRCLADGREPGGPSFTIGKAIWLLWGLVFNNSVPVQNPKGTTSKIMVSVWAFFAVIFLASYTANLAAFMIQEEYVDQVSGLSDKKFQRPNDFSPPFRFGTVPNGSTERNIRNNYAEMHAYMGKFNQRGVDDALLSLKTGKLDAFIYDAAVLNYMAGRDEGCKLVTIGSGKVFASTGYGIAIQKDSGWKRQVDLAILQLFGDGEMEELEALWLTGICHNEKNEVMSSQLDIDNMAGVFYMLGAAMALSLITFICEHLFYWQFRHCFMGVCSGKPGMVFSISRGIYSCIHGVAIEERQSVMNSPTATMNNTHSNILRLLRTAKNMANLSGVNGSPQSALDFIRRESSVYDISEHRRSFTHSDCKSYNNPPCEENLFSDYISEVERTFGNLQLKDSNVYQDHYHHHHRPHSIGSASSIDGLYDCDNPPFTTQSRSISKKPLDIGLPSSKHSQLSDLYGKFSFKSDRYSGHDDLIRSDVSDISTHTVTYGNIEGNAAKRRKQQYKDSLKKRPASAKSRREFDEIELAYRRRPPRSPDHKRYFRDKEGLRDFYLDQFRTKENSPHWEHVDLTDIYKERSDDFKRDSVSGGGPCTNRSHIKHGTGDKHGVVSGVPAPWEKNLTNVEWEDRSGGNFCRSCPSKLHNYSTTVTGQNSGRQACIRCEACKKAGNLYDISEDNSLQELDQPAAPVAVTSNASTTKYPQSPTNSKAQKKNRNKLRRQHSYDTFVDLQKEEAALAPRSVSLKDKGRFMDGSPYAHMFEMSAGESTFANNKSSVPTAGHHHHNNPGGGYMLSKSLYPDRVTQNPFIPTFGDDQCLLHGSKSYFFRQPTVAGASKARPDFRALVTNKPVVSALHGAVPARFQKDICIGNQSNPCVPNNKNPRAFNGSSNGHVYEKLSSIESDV
row,SMILES,IC50
1,"Cc1cc(-c2cnc3ccn(CC(=O)N4CC(O)C4)c3c2)ccc1F [Example 273, 2-[6-(4-Fluoro-3-methyl-phenyl)pyrrolo[3,2-b]pyridin-1-yl]-1-(3-hydroxyazetidine-1-yl)ethanone]",1000 nM
2,"CO/N=C(/Cn1ccc2ncc(-c3ccc(F)c(C)c3)cc21)C1CC1 [Example 276, 1-Cyclopropyl-2-[6-(4-fluoro-3-methyl-phenyl)pyrrolo[3,2-b]pyridin-1-yl]-N-methoxy-ethanimine]",501 nM
3,"O=C(Cn1ccc2ncc(-c3cccs3)cc21)N1CC(F)C1 [Example 277, 1-(3-Fluoroazetidin-1-yl)-2-[6-(2-thienyl)pyrrolo[3,2-b]pyridin-1-yl]ethanone]",3160 nM
4,"O=C(Cn1ccc2ncc(-c3cccs3)cc21)N1CCCC1 [Example 278, 1-Pyrrolidin-1-yl-2-[6-(2-thienyl)pyrrolo[3,2-b]pyridin-1-yl]ethanone]",251 nM
5,"Cc1ccc(-c2cnc3ccn(CC(=O)N4CC(F)(F)C4)c3c2)s1 [Example 279, 1-(3,3-Difluoroazetidin-1-yl)-2-[6-(5-methyl-2-thienyl)pyrrolo[3,2-b]pyridin-1-yl]ethanone]",251 nM
6,"Cc1ccc(-c2cnc3ccn(CC(=O)N4CC(F)C4)c3c2)s1 [Example 280, 1-(3-Fluoroazetidin-1-yl)-2-[6-(5-methyl-2-thienyl)pyrrolo[3,2-b]pyridin-1-yl]ethanone]",31.6 nM
7,"CCc1ccc(-c2cnc3ccn(CC(=O)N4CC(F)C4)c3c2)s1 [Example 281, 2-[6-(5-Ethyl-2-thienyl)pyrrolo[3,2-b]pyridin-1-yl]-1-(3-fluoroazetidin-1-yl)ethanone]",20 nM
8,"CCc1ccc(-c2cnc3ccn(CC(=O)N4CCCC4)c3c2)s1 [Example 282, 2-[6-(5-Ethyl-2-thienyl)pyrrolo[3,2-b]pyridin-1-yl]-1-pyrrolidin-1-yl-ethanone]",79.4 nM
9,"Cc1ccc(-c2cnc3ccn(CC(=O)N4CCCC4)c3c2)s1 [Example 283, 2-[6-(5-Methyl-2-thienyl)pyrrolo[3,2-b]pyridin-1-yl]-1-pyrrolidin-1-yl-ethanone]",200 nM
10,"CCc1ccc(-c2cnc3ccn(CC(=O)N4CC(F)(F)C4)c3c2)s1 [Example 284, 1-(3,3-Difluoroazetidin-1-yl)-2-[6-(5-ethyl-2-thienyl)pyrrolo[3,2-b]pyridin-1-yl]ethanone]",100 nM
11,"O=C(Cn1ccc2ncc(-c3cc(Cl)cs3)cc21)N1CC(F)C1 [Example 285, 2-[6-(4-Chloro-2-thienyl)pyrrolo[3,2-b]pyridin-1-yl]-1-(3-fluoroazetidin-1-yl)ethanone]",158 nM
12,"Cc1cc(-c2cnc3ccn(C/C(=N/O)C4CC4)c3c2)ccc1F [Example 286, 1-Cyclopropyl-2-[6-(4-fluoro-3-methyl-phenyl)pyrrolo[3,2-b]pyridin-1-yl]ethanone oxime trifluoroacetate salt]",158 nM
13,"O=C(Cn1ccc2ncc(-c3ccc(Cl)s3)cc21)N1CCCC1 [Example 287, 2-[6-(5-Chloro-2-thienyl)pyrrolo[3,2-b]pyridin-1-yl]-1-pyrrolidin-1-yl-ethanone]",631 nM
14,"O=C(Cn1ccc2ncc(-c3cc(Cl)cs3)cc21)N1CCCC1 [Example 288, 2-[6-(4-Chloro-2-thienyl)pyrrolo[3,2-b]pyridin-1-yl]-1-pyrrolidin-1-yl-ethanone]",20 nM
15,"COC1CN(C(=O)Cn2ccc3ncc(-c4ccc(F)c(C)c4)cc32)C1 [Example 290, 2-[6-(4-Fluoro-3-methyl-phenyl)pyrrolo[3,2-b]pyridin-1-yl]-1-(3-methoxyazetidin-1-yl)ethanone]",631 nM
16,"COCCn1ccc2ncc(-c3ccc(F)c(C)c3)cc21 [Example 291, 6-(4-Fluoro-3-methyl-phenyl)-1-(2-methoxyethyl)pyrrolo[3,2-b]pyridine trifluoroacetate salt]",79.4 nM
17,"O=C(Cn1ccc2ncc(-c3cccc(F)c3)cc21)C1CCC1 [Example 292, 1-Cyclobutyl-2-[6-(3-fluorophenyl)pyrrolo[3,2-b]pyridin-1-yl]ethanone]",1260 nM
18,"O=C(Cn1ccc2ncc(-c3ccc(F)cc3)cc21)N1CC[C@H](F)C1 [Example 294, 2-[6-(4-Fluorophenyl)pyrrolo[3,2-b]pyridin-1-yl]-1-[(3S)-3-fluoropyrrolidin-1-yl]ethanone trifluoroacetate salt]",316 nM
19,"CCC(=O)Cn1ccc2ncc(-c3ccc(F)c(C)c3)cc21 [Example 295, 1-[6-(4-Fluoro-3-methyl-phenyl)pyrrolo[3,2-b]pyridin-1-yl]butan-2-one trifluoroacetate salt]",316 nM
20,"CCN(C)C(=O)Cn1ccc2ncc(-c3ccc(F)c(C)c3)cc21 [Example 296, N-Ethyl-2-[6-(4-fluoro-3-methyl-phenyl)pyrrolo[3,2-b]pyridin-1-yl]-N-methyl-acetamide]",25.1 nM
21,"CCN(CC)C(=O)Cn1ccc2ncc(-c3ccc(F)c(C)c3)cc21 [Example 297, N,N-Diethyl-2-[6-(4-fluoro-3-methyl-phenyl)pyrrolo[3,2-b]pyridin-1-yl]acetamide]",39.8 nM
22,"O=C(Cn1cc(Cl)c2ncc(-c3cccc(C(F)(F)F)c3)cc21)N1CCC1 [Example 298, 1-(Azetidin-1-yl)-2-[3-chloro-6-[3-(trifluoromethyl)phenyl]pyrrolo[3,2-b]pyridin-1-yl]ethanone]",501 nM
23,"Cc1cccc(-c2cnc3c(Cl)cn(CC(=O)C4CC4)c3c2)c1 [Example 299, 2-[3-Chloro-6-(m-tolyl)pyrrolo[3,2-b]pyridin-1-yl]-1-cyclopropyl-ethanone]",50.1 nM
24,"O=C(Cn1cc(Cl)c2ncc(-c3ccccc3)cc21)C1CC1 [Example 300, 2-(3-Chloro-6-phenyl-pyrrolo[3,2-b]pyridin-1-yl)-1-cyclopropyl-ethanone]",20 nM
25,"O=C(Cn1cc(Cl)c2ncc(-c3cc(F)c(F)c(F)c3)cc21)N1CCC1 [Example 301, 1-(Azetidin-1-yl)-2-[3-chloro-6-(3,4,5-trifluorophenyl)pyrrolo[3,2-b]pyridin-1-yl]ethanone]",20 nM
26,"O=C(Cn1cc(F)c2ncc(-c3ccc(F)cc3)cc21)N1CCC1 [Example 302, 1-(Azetidin-1-yl)-2-[3-fluoro-6-(4-fluorophenyl)pyrrolo[3,2-b]pyridin-1-yl]ethanone]",31.6 nM
27,"Cc1cc(C)cc(-c2cnc3c(Cl)cn(CC(=O)N4CCC4)c3c2)c1 [Example 303, 1-(Azetidin-1-yl)-2-[3-chloro-6-(3,5-dimethylphenyl)pyrrolo[3,2-b]pyridin-1-yl]ethanone]",39.8 nM
28,"Cc1cc(-c2cnc3c(F)cn(CC(=O)N4CCOCC4)c3c2)ccc1F [Example 304, 2-[3-Fluoro-6-(4-fluoro-3-methyl-phenyl)pyrrolo[3,2-b]pyridin-1-yl]-1-morpholino-ethanone]",158 nM
29,"O=C(Cn1cc(F)c2ncc(-c3ccc(F)cc3)cc21)N1CCOCC1 [Example 305, 2-[3-Fluoro-6-(4-fluorophenyl)pyrrolo[3,2-b]pyridin-1-yl]-1-morpholino-ethanone]",79.4 nM
30,"O=C(Cn1cc(F)c2ncc(-c3cc(F)c(F)c(F)c3)cc21)N1CC(F)C1 [Example 306, 1-(3-Fluoroazetidin-1-yl)-2-[3-fluoro-6-(3,4,5-trifluorophenyl)pyrrolo[3,2-b]pyridin-1-yl]ethanone]",398 nM
